Laboratory results from patent publication US8420654B2 (Eli Lilly and Company, priority 2008, dated 2013).

Key:
CYP3A = experiment: Human CYP fingerprinting, ketoconazole inhibitor; type: in vitro ADME; details: 4 μM, human liver microsomes, 30 min, ketoconazole 10 μM
Experimental: (§1) CYP fingerprinting is well established technique and is used as an indication of potential risk of drug-drug interactions in the pharmaceutical sciences. Compounds of the present invention may be assayed by well known methods, essentially as follows: Compounds are incubated at 37° C. at a final concentration of 4 μM with pooled, mixed gender, human liver microsomes and 1 mM NADPH ([…]) (final conc.) for 0 and 30 min. without any CYP inhibitor and with each CYP inhibitor in separate incubations for 30 min. Each inhibitor is specific for an individual cytochrome P450. The specific inhibitors used for CYPs 2C9, 2D6 and 3A were sulfaphenazole, quinidine and ketoconazole, respectively. Ketoconazole (CYP3A) is made up at 25 mM in DMSO and then diluted in buffer to a final concetration of 10 μM. Quinidine (CYP2D6) is made up at 5 mM in 50/50 acetonitrile/water and then diluted in buffer to a final concetration of 10 μM. Sulfaphenazole (CYP2C9) is made up at 100 mM in DMSO and then diluted in buffer to a final concetration of 5 μM. Samples are analyzed by LC-MS in positive or negative electrospray mode using a Waters Acquity Ultra Performance LC coupled to a MicroMass Q-T of-2 mass spectrometer.
(§2) Data are analyzed using MetaboLynx™ version 4.1. With inhibitor present, a reduction in metabolite peak area of less than 30% (relative to the uninhibited control incubation) receives a designation of low risk of Drug Drug Interaction (DDI), a reduction in peak area between 30% and 70% receives a moderate risk of DDI and a reduction of more than 70% receives a high risk of DDI.

CYP2D6 = target: T1, CYP2D6 (Homo sapiens, UniProt P10635); experiment: Human CYP fingerprinting, quinidine inhibitor; type: in vitro ADME; details: 4 μM, human liver microsomes, 30 min, quinidine 10 μM
T1 construct: pooled, mixed gender, human liver microsomes; from tissue; host or cells: pooled, mixed gender human liver microsomes
Experimental: as §1, §2

T1 sequence (P10635 whole entry): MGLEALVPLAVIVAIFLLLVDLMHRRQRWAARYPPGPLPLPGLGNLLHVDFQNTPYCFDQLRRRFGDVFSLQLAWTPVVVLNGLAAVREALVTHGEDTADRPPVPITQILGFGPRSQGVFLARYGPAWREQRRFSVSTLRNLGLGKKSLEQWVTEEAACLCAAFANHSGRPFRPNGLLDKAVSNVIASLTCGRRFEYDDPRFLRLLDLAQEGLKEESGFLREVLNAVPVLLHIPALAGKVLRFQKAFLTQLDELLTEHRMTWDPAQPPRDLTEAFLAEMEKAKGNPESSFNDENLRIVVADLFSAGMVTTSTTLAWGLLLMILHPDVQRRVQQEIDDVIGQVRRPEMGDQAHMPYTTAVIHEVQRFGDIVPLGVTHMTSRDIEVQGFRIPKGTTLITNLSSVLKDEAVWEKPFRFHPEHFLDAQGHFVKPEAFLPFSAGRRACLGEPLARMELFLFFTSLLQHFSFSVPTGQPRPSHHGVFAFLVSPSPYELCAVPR

For CC(C)(N[C@@H]1C[C@H](c2cccc(OC(F)(F)F)c2)N(c2ccc(C(F)(F)F)cc2)C1=O)c1ccnc(C(F)(F)F)n1 [Example 6, (3R,5R)-3-[1-Methyl-1-(2-trifluoromethyl-pyrimidin-4-yl)-ethylamino]-5-(3-trifluoromethoxy-phenyl)-1-(4-trifluoromethyl-phenyl)-pyrrolidin-2-one adipate], the “Risk of Drug Drug Interaction (DDI) CYP3A” value (CYP3A) was “low (a reduction in metabolite peak area of less than 30% (relative to the uninhibited control incubation) receives a designation of low risk of Drug Drug Interaction (DDI))” and the “Risk of Drug Drug Interaction (DDI) CYP2D6” value (CYP2D6) was “low (a reduction in metabolite peak area of less than 30% (relative to the uninhibited control incubation) receives a designation of low risk of Drug Drug Interaction (DDI))”.
